Results on 2 compounds are retold here after patent publication US20240335406A1, “COMPOUNDED COMPOSITIONS AND METHODS FOR TREATING PAIN” (CMPD Licensing, LLC, priority 2016, published 2024).

Where a name gives a salt, the structure may show the parent alone.

The nature of the series: Potency test of the compounded topical solution of Example 1 (HPLC with UV/photodiode array detector). The class given is physicochemical. The settings on record: for Measured: concentration of analyte in compounded topical solution of Example 1; for Potency: measured vs reported concentration, compounded topical solution of Example 1. The method, then:
Diclofenac sodium topical solution, 1.5% (w/w), includes approximately 16.05 mg diclofenac sodium per mL. Accordingly, approximately 0.9167 mL of diclofenac sodium topical solution, 1.5% (w/w), was measured for every mL of compounded topical solution. […] The measured ingredients where combined in a beaker. The beaker was placed on a magnetic stirring plate and a stir bar was placed in the beaker and rotated at a speed to create a small vortex for 5 minutes. The stirred solution was then placed in containers.

With `O=C(O)Cc1ccccc1Nc1c(Cl)cccc1Cl` [Diclofenac Sodium], the Measured was found to be 1.51% and the Potency is reported as 103%.
Taken in the same sequence, the figures for `CCN(CC)CC(=O)Nc1c(C)cccc1C` [Lidocaine HCl, Lidocaine Hydrochloride] were 0.336% and 101%.
